Test results reported in US6825340B2, “Methods and reagents for inactivating ribonucleases” (Ambion, Inc., priority 1998, dated 2004).

System: RNase mixture (RNase A, RNase 1, RNase T1)
Test: Non-isotopic RNase inactivation assay (mouse total RNA, agarose gel)
Assay type: biochemical, human, E. coli and a fungus
Set-up: key to RNase Inactivation Water / RNase Inactivation Buffer A / RNase Inactivation Buffer B / RNase Inactivation Buffer C: (+) indicates that the RNase mixture was inactivated; (−) indicates that the RNase mixture was not activated as determined by the non-isotopic assay
Details: for RNase Inactivation Buffer B: 50 mM Tris-HCl (pH 7.0); for RNase Inactivation Buffer C: 30 mM NaCl, 3 mM sodium citrate (pH 7.5)
Text: The inventors routinely perform assays on RNA designed to assess RNase activity in a sample. Two different assays are typically used for the detection of ribonuclease activity, non-isotopic and isotopic. […] In both assays, the inactivation process is typically performed on a mixture of three different ribonucleases: RNase A, RNase 1, and RNase T1. Each ribonuclease is purified from a different species: […], E. coli and a fungus, respectively. The three RNases are very different from each other in their origin, substrate specificity and protein sequence. In this way, the inactivation process can test three completely different but well characterized ribonucleases. The standard stock RNase mixture employed in the following examples is prepared by combining 1 μl RNase 1 (100 U/μl; Ambion), 1 μl RNase cocktail (RNase A, 0.5 U/μl; RNase T1, 20 U/μl, Ambion) and 98 μl water. The non-isotopic assay uses total RNA isolated from mouse as the substrate for the RNase mixture. […] A quantity of 4 μg of total RNA isolated from mouse liver or brain was dissolved in an aqueous solution, usually water or 1 mM sodium citrate (pH 6.6). The treated ribonuclease sample was added to the total RNA and then incubated at 37° C. for 1 or 16 hours, depending on the sensitivity desired for the assay. After incubation, the RNA was fractionated in a formaldehyde 1% agarose gel. The RNA was detected by staining with ethidium bromide and then illuminating the gel with ultraviolet light. The RNA fluoresces in the gel. Untreated total RNA was also fractionated as a control with the test samples for comparative purposes. […] Intact total RNA has two major bands produced by the 28S and 18S ribosomal RNA. […] The RNase cocktail was made to various concentrations in different buffers in different DTT concentrations and incubated at 37° C. or 60° C. for 20 minutes. Total mouse RNA was added to the treated RNase mixture and incubated at 37° C. for one hour, fractionated in a formaldehyde denaturing 1% agarose gel and the RNA visualized by ethidium bromide staining and UV fluorescence.

[1] = RNase Mix 64 ng/ml, DTT 5 mM, 60° C. for 20 minutes
[2] = RNase Mix 64 ng/ml, DTT 10 mM, 37° C. for 20 minutes
[3] = RNase Mix 64 ng/ml, DTT 10 mM, 60° C. for 20 minutes
[4] = RNase Mix 95 ng/ml, DTT 5 mM, 60° C. for 20 minutes
[5] = RNase Mix 95 ng/ml, DTT 10 mM, 37° C. for 20 minutes
[6] = RNase Mix 95 ng/ml, DTT 10 mM, 60° C. for 20 minutes
[7] = RNase Mix 191 ng/ml, DTT 5 mM, 60° C. for 20 minutes
[8] = RNase Mix 191 ng/ml, DTT 10 mM, 37° C. for 20 minutes
[9] = RNase Mix 191 ng/ml, DTT 10 mM, 60° C. for 20 minutes
[10] = RNase Mix 191 ng/ml, DTT 20 mM, 60° C. for 20 minutes
[11] = RNase Mix 954 ng/ml, DTT 5 mM, 60° C. for 20 minutes
[12] = RNase Mix 954 ng/ml, DTT 10 mM, 37° C. for 20 minutes
[13] = RNase Mix 954 ng/ml, DTT 10 mM, 60° C. for 20 minutes
[14] = RNase Mix 954 ng/ml, DTT 20 mM, 60° C. for 20 minutes

SMILES: O[C@H](CS)[C@H](O)CS [DTT, dithiothreitol]
- concentration of RNase mixture completely inactivated (20 mM DTT, 1 mM sodium citrate (pH 6.4), 60° C. for 20 minutes, non-isotopic assay, 1 hour incubation): up to 200 ng/ml
- inactivation of sequentially added RNases (20 mM DTT, 1 mM sodium citrate (pH 6.4), RNases 200 ng/ml per addition, heating at 60° C. for 20 minutes after each addition): completely inactivated
- concentration of RNase mixture completely inactivated in the presence of RNA (20 mM DTT, mouse liver total RNA 4 μg/10 μl, 1 mM sodium citrate (pH 6.4), 60° C. for 20 minutes): up to 3.125 ng/ml
- effect of sequentially added RNases without reheating (20 mM DTT, same buffer, not subjected to the 60° C. incubation): complete RNA degradation
- 60° C. incubation time required for inactivation (RNase 200 ng/ml, 20 mM DTT, 60° C.): at least 4 minutes
- RNase Inactivation Buffer A (RNase Mix 64 ng/ml, DTT 5 mM, 60° C. for 20 minutes, 1 mM sodium citrate (pH 6.4)): +
- RNase Inactivation Buffer B [1]: +
- RNase Inactivation Buffer C [1]: +
- RNase Inactivation Water [1]: +
- RNase Inactivation Buffer A (RNase Mix 64 ng/ml, DTT 10 mM, 37° C. for 20 minutes, 1 mM sodium citrate (pH 6.4)): +
- RNase Inactivation Buffer B [2]: +
- RNase Inactivation Buffer C [2]: +
- RNase Inactivation Water [2]: +
- RNase Inactivation Buffer A (RNase Mix 64 ng/ml, DTT 10 mM, 60° C. for 20 minutes, 1 mM sodium citrate (pH 6.4)): +
- RNase Inactivation Buffer B [3]: +
- RNase Inactivation Buffer C [3]: +
- RNase Inactivation Water [3]: +
- RNase Inactivation Buffer A (RNase Mix 95 ng/ml, DTT 5 mM, 60° C. for 20 minutes, 1 mM sodium citrate (pH 6.4)): −
- RNase Inactivation Buffer B [4]: −
- RNase Inactivation Buffer C [4]: −
- RNase Inactivation Water [4]: −
- RNase Inactivation Buffer A (RNase Mix 95 ng/ml, DTT 10 mM, 37° C. for 20 minutes, 1 mM sodium citrate (pH 6.4)): −
- RNase Inactivation Buffer B [5]: −
- RNase Inactivation Buffer C [5]: −
- RNase Inactivation Water [5]: −
- RNase Inactivation Buffer A (RNase Mix 95 ng/ml, DTT 10 mM, 60° C. for 20 minutes, 1 mM sodium citrate (pH 6.4)): +
- RNase Inactivation Buffer B [6]: +
- RNase Inactivation Buffer C [6]: +
- RNase Inactivation Water [6]: +
- RNase Inactivation Buffer A (RNase Mix 191 ng/ml, DTT 5 mM, 60° C. for 20 minutes, 1 mM sodium citrate (pH 6.4)): −
- RNase Inactivation Buffer B [7]: −
- RNase Inactivation Buffer C [7]: −
- RNase Inactivation Water [7]: −
- RNase Inactivation Buffer A (RNase Mix 191 ng/ml, DTT 10 mM, 37° C. for 20 minutes, 1 mM sodium citrate (pH 6.4)): −
- RNase Inactivation Buffer B [8]: −
- RNase Inactivation Buffer C [8]: −
- RNase Inactivation Water [8]: −
- RNase Inactivation Buffer A (RNase Mix 191 ng/ml, DTT 10 mM, 60° C. for 20 minutes, 1 mM sodium citrate (pH 6.4)): +
- RNase Inactivation Buffer B [9]: +
- RNase Inactivation Buffer C [9]: +
- RNase Inactivation Water [9]: +
- RNase Inactivation Buffer A (RNase Mix 191 ng/ml, DTT 20 mM, 60° C. for 20 minutes, 1 mM sodium citrate (pH 6.4)): +
- RNase Inactivation Buffer B [10]: +
- RNase Inactivation Buffer C [10]: +
- RNase Inactivation Water [10]: +
- RNase Inactivation Buffer A (RNase Mix 954 ng/ml, DTT 5 mM, 60° C. for 20 minutes, 1 mM sodium citrate (pH 6.4)): −
- RNase Inactivation Buffer B [11]: −
- RNase Inactivation Buffer C [11]: −
- RNase Inactivation Water [11]: −
- RNase Inactivation Buffer A (RNase Mix 954 ng/ml, DTT 10 mM, 37° C. for 20 minutes, 1 mM sodium citrate (pH 6.4)): −
- RNase Inactivation Buffer B [12]: −
- RNase Inactivation Buffer C [12]: −
- RNase Inactivation Water [12]: −
- RNase Inactivation Buffer A (RNase Mix 954 ng/ml, DTT 10 mM, 60° C. for 20 minutes, 1 mM sodium citrate (pH 6.4)): −
- RNase Inactivation Buffer B [13]: −
- RNase Inactivation Buffer C [13]: −
- RNase Inactivation Water [13]: −
- RNase Inactivation Buffer A (RNase Mix 954 ng/ml, DTT 20 mM, 60° C. for 20 minutes, 1 mM sodium citrate (pH 6.4)): +
- RNase Inactivation Buffer B [14]: +
- RNase Inactivation Buffer C [14]: +
- RNase Inactivation Water [14]: +
- RNase mixture inactivation (RNase mixture 64 ng/ml, 10 mM DTT, 37° C. for 20 minutes): inactivated
- RNase activity inactivated (RNase mixture 200 ng/ml, 20 mM DTT, 60° C. for 1 minute): approximately 50%
- RNase activity inactivated (RNase mixture 200 ng/ml, 20 mM DTT, 60° C. for 2 minutes): ~80%
- RNase activity inactivated (RNase mixture 200 ng/ml, 20 mM DTT, 60° C. for 4 minutes): ~100%
- RNase inactivation in different buffers and solutions (RNase mixture 200 ng/ml, 20 mM DTT, 60° C. for 20 minutes, 17 solutions, non-isotopic): inactivated RNase activity in all of buffers and solutions tested
- RNase mixture inactivation (RNase mixture 200 ng/ml, 20 mM DTT, 60° C. for less than 30 seconds): did not inactivate
- RNase mixture inactivation (RNase mixture 954 ng/ml, 20 mM DTT, 60° C. for 20 minutes): inactivated
- RNase activity on retest after storage (solutions with inactivated RNases stored at 4° C. for one month): none of the solutions had detectable RNase activity
